In paper PMC6768916, “Population pharmacokinetics of fedratinib in patients with myelofibrosis, polycythemia vera, and essential thrombocythemia” (Cancer Chemotherapy and Pharmacology, 2019):
“Also recorded” adds a separate entry of the source. Like-named read-outs stand apart in the source and are kept apart here.

Tests used:
[1] = system: activated mutant JAK2 V617F; parameters: method as in PMID 18394554; settings: cited from earlier work
[2] = population pharmacokinetic model in patients with MF, PV or ET; assay type: in vivo, human
Protocol: The population PK analysis utilized data from one phase 1 study (TED12037 [NCT00631462]), four phase 2 studies (ARD11936 [NCT01420770], ARD12042 [NCT01420783], ARD12181 [NCT01523171], ARD12888 [NCT01692366]) and one phase 3 study (EFC12153 [NCT01437787]). Study design, dosing regimen, and PK sampling information are presented in Supplementary Table 1. These studies were conducted in accordance with the Declaration of Helsinki and the International Council for Harmonisation Guideline for Good Clinical Practice (ICH E6). Written informed consent was obtained from all subjects.
Concentrations of fedratinib in plasma were determined using a validated high-performance liquid chromatography with tandem mass spectrometric detection, with good accuracy (− 6.75–8.8%) and precision (4.84–13.11%). The lower limit of quantification was 1 ng/mL, and the calibration range was 1–1000 ng/mL.
Population PK analyses were conducted using a nonlinear mixed-effect modeling approach, as implemented in the NONMEM software version 7.3.0 (ICON Development Solutions, Ellicott City, MD). Plotting of NONMEM outputs was conducted using the R software (version 3.4.1) and RStudio (version 1.1.456, Boston, MA).
In the development of the structural model, one- to three-compartment models with first-order elimination and different absorption models including first-order absorption with and without lag time, zero-order absorption and transit compartment model were tested to fit the plasma concentration-time data. First-order conditional estimation (FOCE) with interaction method was used for parameter estimation, with natural logarithm-transformed plasma fedratinib concentration data. The inter-subject variability was modeled assuming a log-normal distribution. Residual variability was modeled using an additive model. The model selection was based on the objective function value (OFV) using the log-likelihood ratio test, the goodness of fit criteria and visual predictive check (VPC). Covariate model building was carried out using a stepwise procedure, with significance levels set to 0.01 and 0.001 for the forward inclusion and backward elimination steps, respectively. Missing baseline covariates were imputed as the median value in the study population.
Stability of the final PK parameter estimates and the 95% confidence interval (CI) for the parameters were evaluated using the nonparametric bootstrap approach. With this approach, 500 datasets of size equal to the original dataset were generated by random resampling with replacement from the original dataset. The final model was fit to each of the 500 bootstrap datasets and all the model parameters were estimated for each dataset. The median and nonparametric 95% CI (2.5–97.5 percentiles) of the 500 estimates were calculated for each parameter. The ability of the final population PK model to describe the observed concentration data was evaluated by simulating 200 datasets having the same doses, dosing schedules and sampling times as the original dataset and by performing prediction-corrected VPC [18]. The 5th, 50th and 95th prediction percentiles of the fedratinib concentrations at each binned time point were computed for each simulated trial. Thereafter, the nonparametric 90% CI of the 5th, 50th and 95th prediction percentiles at each binned time point were calculated for the 200 simulated trials.

[3] = human, in vivo; cited from earlier work
[4] = system: JAK2 V617F-driven aberrant human PV progenitor erythroid differentiation; parameters: method as in PMID 18394555; settings: cited from earlier work
[5] = cited from earlier work
[6] = system: wild-type JAK2; parameters: method as in PMID 18394554; settings: cited from earlier work
[7] = system: FLT3; parameters: method as in PMID 18394554; settings: cited from earlier work
[8] = final model, inter-individual variability

For `Cc1cnc(Nc2ccc(OCCN3CCCC3)cc2)nc1Nc1cccc(S(=O)(=O)NC(C)(C)C)c1` [fedratinib, Fedratinib], the IC50 [1] is given as 3 nM, the “increase in exposure (steady-state AUC) with moderate renal impairment vs normal renal function” value ([2]; 30 ≤ CLcr < 60 mL/min vs CLcr ≥ 90 mL/min) is given as 37% and the “increase in exposure (steady-state AUC) with mild renal impairment vs normal renal function” value ([2]; 60 ≤ CLcr < 90 mL/min vs CLcr ≥ 90 mL/min) is given as 10%. For the same compound, the “apparent clearance of a typical PV patient” value ([2]; CLcr = 78.5 mL/min) was 20.0 L/h, the “increase in typical AUC with severe renal impairment vs normal renal function” value ([2]; MF patients, severe renal impairment, N = 3) was 59% and the “typical value of CL/F, base model” value ([2]; base model) was 13.6 L/h. For the same compound, the “typical value of V2/F, base model” value ([2]; base model) was 340 L, the “magnitude of changes in V2/F by body weight” value ([2]; body weight 39.5 to 135 kg) was “less than 30%” and the “magnitude of changes in V2/F by dose” value ([2]; covariate analysis) was “less than 30%”. For the same compound, the “linearity of PK with dose” value ([2]; doses of 200 mg and above) was “linear, time-invariant PK; also recorded: increased linearly”, the “CL/F higher in PV patients compared to MF or ET patients” value ([2]; final model) was 54% and the “CL/F of a typical MF patient” value ([2]; final model) was 13.0 L/h. For the same compound, the “TVCL/F, parameter estimate” value ([2]; final model) was 13.0 L/h, the “TVKa, parameter estimate” value ([2]; final model) was 1.57 h⁻¹ and the “TVQ/F, parameter estimate” value ([2]; final model) was 45.2 L/h. For the same compound, the “TVV2/F, parameter estimate” value ([2]; final model) was 311 L, the “TVV3/F, parameter estimate” value ([2]; final model) was 1460 L and the “V2/F higher in PV patients compared to MF or ET patients” value ([2]; final model) was 87%. The “fold higher CL/F in PV patients compared to MF or ET patients” value ([2]; final model) was 1.54 fold, the “fold higher V2/F in PV patients compared to MF or ET patients” value ([2]; final model) was 1.87 fold and the “TVCL/F, bootstrap median (95% CI)” value ([2]; final model, 484 of 500 bootstrap replicates) was 13.1 (12.4 to 13.9) L/h. The “TVALAG1, parameter estimate” value ([2]; final model, absorption lag time) was 0.265 h, the “COVCL/F-V2/F, bootstrap median (95% CI)” value ([2]; final model, bootstrap) was 0.193 (0.145 to 0.249) and the “PV on V2/F, bootstrap median (95% CI)” value ([2]; final model, bootstrap) was 1.85 (1.40 to 2.42). The “TVALAG1, bootstrap median (95% CI)” value ([2]; final model, bootstrap) was 0.265 (0.264 to 0.321) h, the “TVKa, bootstrap median (95% CI)” value ([2]; final model, bootstrap) was 1.64 (1.34 to 2.05) h^−1 and the “TVQ/F, bootstrap median (95% CI)” value ([2]; final model, bootstrap) was 45.2 (38.5 to 52.9) L/h. The “TVV2/F, bootstrap median (95% CI)” value ([2]; final model, bootstrap) was 313 (282 to 343) L, the “TVV3/F, bootstrap median (95% CI)” value ([2]; final model, bootstrap) was 1470 (1190 to 1790) L and the “Weight on V2/F, bootstrap median (95% CI)” value ([2]; final model, bootstrap) was 0.733 (0.383 to 1.10). For the same compound, the “σ^2 (Log additive), bootstrap median (95% CI)” value ([2]; final model, bootstrap) was 0.194 (0.159 to 0.264), the “ω^2, Ka, bootstrap median (95% CI)” value ([2]; final model, bootstrap) was 1.09 (0.728 to 1.54) and the “ω^2, V2/F, bootstrap median (95% CI)” value ([2]; final model, bootstrap) was 0.371 (0.247 to 0.510). For the same compound, the “COVCL/F-V2/F, parameter estimate” value ([2]; final model, covariance) was 0.197, the “PV on V2/F, parameter estimate” value ([2]; final model, covariate factor if PV) was 1.87 and the “Weight on V2/F, parameter estimate” value ([2]; final model, exponent of (Weight/70.1)) was 0.727. The “ω^2, Ka, parameter estimate” value [2, 8] was 1.07, the “ω^2, V2/F, parameter estimate” value [2, 8] was 0.383 and the “σ^2 (Log additive), parameter estimate” value ([2]; final model, residual variability) was 0.201. For the same compound, the “effect of age, body weight, sex, race and liver function on exposure/PK” value ([2]; population PK covariate analysis) was “No clinically meaningful effect”, the “CL/F of healthy subjects” value [3] was 20.7 to 46.0 L/h and the “dose proportionality of exposure” value [3] was “greater than dose-proportional increase”. The mean terminal half-life [3] was 62 to 78 h, the “inhibition of JAK2 V617F-driven aberrant human PV progenitor erythroid differentiation” value [4] was “significantly inhibits” and the “dose proportionality of exposure” value ([5]; 300–500 mg at steady state) was “approximately dose-proportional”. For the same compound, the mean accumulation ratio ([5]; 300–500 mg once daily, steady state) was 2.95–3.88, the “time to peak plasma concentration” value ([5]; human, in vivo, po) was 0.5 to 4 h and the “dose proportionality of exposure” value ([5]; human, in vivo) was “greater than dose-proportional increase”. The “time to steady state of plasma levels” value ([5]; once daily dosing) was at most 15 days, the “selectivity for JAK2 over JAK1, JAK3 and TYK2” value [6] was “selective for JAK2 over JAK1, JAK3 and TYK2” and the IC50 ([6]; wild-type JAK2) was 3 nM. For the same compound, the IC50 [7] was 15 nM.
